Measurements reported in article PMC9007913 (Angewandte Chemie (International ed. in English), 2022).

Test system: ID8 cells
Assay: Inhibition assay of cellular uptake of OCTL14
Type: cell-based, murine
Settings: pre-blocked 5-30 min, then 2 μM OCTL14 for 30 min

SMILES | change in cellular uptake of OCTL14 after pretreatment with inhibitor
O=C(N/N=C/c1cc(O)c(O)cc1O)c1cc2ccccc2cc1O [Dyngo 4a] | did not result in any appreciable change in cellular uptake
O=C1NC(=NS(=O)(=O)c2cccc3ccccc23)S/C1=C\c1ccc(Br)cc1 [Pitstop 2] | did not result in any appreciable change in cellular uptake
O=C1OC(c2ccc(O)c(S(=O)(=O)O)c2)(c2ccc(O)c(S(=O)(=O)O)c2)c2c(Br)c(Br)c(Br)c(Br)c21 [BSP, bromsulphthalein] | did not result in significant changes in cellular uptake
CN(C)C(=O)CCSC(SCCC(=O)O)c1cccc(/C=C/c2ccc3ccc(Cl)cc3n2)c1 (stereo not shown) [MK-571] | little change in cellular uptake
